Patent US11434537B2, “Biomarker for prognosis of colorectal cancer” (NATIONAL CHENG KUNG UNIVERSITY, priority 2020, dated 2022)

Tests used:
Type in all cases: cell-based, human
[1] = test system: HCT116 cells; assay: Wound-healing and Transwell migration assays, HCT116; settings: 10 μM for 48 h, HCT116 stable cells, wound healing 24 h (FIG. 14(e))
Description: Then, HCT116 cells transfected with miR-338-5p were assessed for cell migration in vitro with a wound-healing assay analyzed at 24 h and a Transwell assay analyzed at 48 h (Corning, Corning City, N.Y.). Cell invasion in vitro was estimated using a Transwell assay, in which cells were seeded on Transwell columns coated with a Matrigel membrane (BD Biosciences, San Jose, Calif.). Then, cells on the bottom of membrane were counted after 96 h. […] Thus, miR-338-5p promotes CRC migration and invasion in vitro.

[2] = test system: LC3 puncta; assay: LC3 puncta formation by immunofluorescent assay; settings: 10 μM, SW480 cells
Description: (§1) FIGS. 14(a) to 14(f) show the involvement of autophagy in miR-338-5p-related CRC migration and invasion in vitro. […] LC3 puncta were labelled with anti-LC3 antibody and fluorescent isothiocyanate-conjugated goat anti-rabbit IgG (green fluorescence). SW480 cell nuclei were stained with Hoechst 33258 (blue fluorescence). Images were photographed using florescent microscopy (the scale bar represents 10 μm). Data are presented as median (IQR) (n=5) (P value was analyzed using Mann-Whitney tests). […] (100 nM). […] Data are presented as median (IQR) (n=5) (P value was analyzed using Mann-Whitney tests). The scale bar represents 50 μm. […] Number of migrated cells was counted after 24 h. The scale bar represents 100 μm. Data are expressed as median (IQR) (n=6) (P value was analyzed using MannWhitney tests). […] The scale bar represents 50 μm. Data are expressed as means±SEM (n=8) (P value was analyzed using t tests).
(§2) To clarify the mechanism(s) underlying miR-338-5p induced migration and invasion of CRC, the involvement of autophagy was assessed. Specifically, the LC3 puncta (microtubule associated protein 1A/1B-LC3) formation and LC3 type II (LC3-II) protein expression were examined in cells treated with amiodarone (an autophagy inducer) by immunofluorescent assay.

[3] = test system: LC3-II; assay: Western blot of LC3-II (autophagy); settings: 10 μM, 48 h, CRC cells (SW480, HCT116)
Description: as §1
FIGS. 15(a) to 15(c) show the involvement of autophagy or EMT pathway in miR-338-5p-related CRC migration in vitro. […] Representative results of Transwell assays are also shown. […] Data are presented as means±SEM (n=8) (P values were analyzed using t tests). […] The number of migrated cells is shown as means±SEM (n=8) (P values were analyzed using t tests).
To clarify the mechanism(s) underlying miR-338-5p induced migration and invasion of CRC, the involvement of autophagy was assessed. […]

[4] = test system: SW480 cells; assay: Transwell migration assay, SW480; settings: 10 μM, Transwell (FIG. 14(c))
[5] = test system: HCT116 cells; assay: Transwell invasion assay, HCT116; settings: amiodarone-treated HCT116 cells, Transwell invasion 48 h (FIG. 14(f))
Description: as §1, §2

Q: `CCCCc1oc2ccccc2c1C(=O)c1cc(I)c(OCCN(CC)CC)c(I)c1` [Amiodarone, amiodarone] was tested. Which cell migration [1] did it give?
A: inhibition of cell migration

Q: And the LC3 puncta formation [2]?
A: induced LC3 puncta formation

Q: And the LC3-II expression [3]?
A: activated LC3-II expression

Q: And the cell migration [4]?
A: inhibition of cell migration

Q: And the cell invasion [5]?
A: inhibition of cell invasion
